We go through 8 molecules from patent US7345192B2, “Reduction of hair growth” (The Gillette Company, priority 2005, dated 2008).

Data set [1] is described as follows: In vitro drug skin accumulation assay (tape-stripped skin after 50-hour diffusion). The data set is classed as in vitro ADME, Hamster. To be noted: for % Skin Deposition: skin after tape stripping of stratum corneum. The protocol:
The penetration studies were carried out using Franz chambers.
After the 50-hour receiver fluid sample was taken, the diffusion set-up was dismantled. The skin section was mounted on a board and the stratum corneum skin layer was removed by tape stripping (3M Magic Tape 810). The section of the remaining skin exposed to the receiver fluid was isolated, placed in a vial containing 1 ml of Beckman Tissue Solubilizer-450, shaken for 4 days, and the resulting solution was assayed for the radiolabeled drug.

How the values of data set [2] were obtained:
The penetration studies were carried out using Franz chambers. Hamster skin (non-flank organ region) was clipped and appropriate size pieces then cut and mounted between the lower and upper Franz cell chambers. The lower and upper chambers (with the skin in between) were then securely clamped together. A small magnetic stir bar was placed in the bottom of each chamber, 80 μL of 100× sodium azide to a final concentration of 0.2% was added as an anti-microbial agent, then the lower chamber was filled with phosphate buffered saline (PBS). PBS is added until the level in the side arm is just level with the mounted skin, slightly inverting the cells as necessary to remove any air bubbles that might occur. The Franz chambers are then placed in the appropriate size heating blocks and allowed to stand overnight at room temperature. […] Similarly, 20-40 μL of a 1% test formulation was applied over 8-10 chambers. Four hundred μL of the receptor fluid from the lower chamber was removed at 2, 4, 6, 8, 24 and 50 hours and placed in a scintillation vial. This PBS was then replaced with 400 μL of fresh PBS.

Data set [3] can be described thus: Ionization constants by potentiometric titration. The class given is physicochemical. The protocol:
Although Schiff base formation is possible at both amino groups, sufficient selectivity can be achieved under buffered conditions or by terminating the reaction at an appropriate time. […] Three constants were obtained: pK1=0.084, pK2=6.437, pK3=10.393. Mono-conjugated Schiff base was prepared by reaction with a selected aldehyde or ketone under controlled buffer conditions.

The structures appear in SMILES notation. Like-named read-outs stand apart in the source and are kept apart here.

As for `NC(CCCN=Cc1ccccc1)(C(=O)O)C(F)F` (centres unmarked) [B-DFMO, 2-amino-5-(benzylidene-amino)-2-difluoromethyl-pentanoic acid], in data set [1], the “Relative Deposition (fold increase over unconjugated DFMO)” value is reported as 7.4 fold. In addition, in data set [1], the “% Skin Deposition” value was determined as 5.92 ± 4.0%. Besides, the “Initial Rate of Penetration” value in data set [2] (hamster, 2 h, 1 % formulation) is listed as 1.24 ± 1.16; in data set [2] (hamster, 4 h, 1 % formulation) it was 1.65 ± 1.48; in data set [2] (hamster, 6 h, 1 % formulation), 1.71 ± 1.50. The “Level of radiolabeled drug in the receptor fluid” value is 10±1 % of the applied dose in data set [2] (hamster, 24 h, 1 % formulation) and 16±3 % of the applied dose in data set [2] (hamster, 50 h, 1 % formulation). Also, in data set [2] (hamster, 24 h, 1 % formulation), the “Skin penetration, % of applied dose after 24 hr” value (“Skin penetration, %” below) is 9.63 ± 1.31 % of applied dose.
In the case of `NCCC[C@](N)(C(=O)O)C(F)F` [DFMO, α-Difluoromethylornithine], in data set [3], the “Ionization constant pK1” value stood at 0.084, the “Ionization constant pK2” value was 6.437 and the “Ionization constant pK3” value is given as 10.393.
Turning to `COC(=O)C(N)(CCCN)C(F)F` (centres unmarked) [DFMO-OMe, 2,5-diamino-2-difluoromethyl-pentanoic acid methyl ester], the “Rate of Penetration” value in data set [2] (hamster, 4 h, 1 % formulation) is 0.23 ± 0.18; in data set [2] (hamster, 6 h, 1 % formulation), 0.21 ± 0.16; in data set [2] (hamster, 24 h, 1 % formulation), 0.2 ± 0.13.
As to `CC(C)c1ccc(C=NCCCC(N)(C(=O)O)C(F)F)cc1` (centres unmarked) [IPB-DFMO, 2-amino-2-difluoromethyl-5-[(4-isopropyl-benzylidene)-amino]-pentanoic acid], the “Skin penetration, %” value in data set [2] (hamster, 24 h, 1 % formulation) was 3.31 ± 0.98 % of applied dose.
In the case of `Cc1cc(C)c(C=NCCCC(N)(C(=O)O)C(F)F)c(C)c1` (centres unmarked) [M-DFMO, 2-amino-2-difluoromethyl-5-[(2,4,6-trimethyl-benzylidene)-amino]-pentanoic acid], the “Skin penetration, %” value in data set [2] (hamster, 24 h, 1 % formulation) is 6.68 ± 1.68 % of applied dose.
Turning to `CC(C=NCCCC(N)(C(=O)O)C(F)F)=Cc1ccccc1` (centres unmarked) [MCA-DFMO, 2-amino-2-difluoromethyl-5-(2-methyl-3-phenyl-allylideneamino)-pentanoic acid], in data set [1], the “Relative Deposition (fold increase over unconjugated DFMO)” value is given as 5.0 fold and the “% Skin Deposition” value was 4.00 ± 3.0%. Besides, the “Skin penetration, %” value in data set [2] (hamster, 24 h, 1 % formulation) is on record as 3.28 ± 0.88 % of applied dose.
For `NC(CCCN=Cc1ccc2ccccc2c1)(C(=O)O)C(F)F` (centres unmarked) [N-DFMO, 2-amino-2-difluoromethyl-5-[([…]aphthalene-2-ylmethylene)-amino]-pentanoic acid], the “Skin penetration, %” value in data set [2] is listed as 3.91 ± 0.71 % of applied dose.
With `COc1cc(C=NCCCC(N)(C(=O)O)C(F)F)ccc1O` (centres unmarked) [V-DFMO, 2-amino-2-difluoromethyl-5-[(4-hydroxy-3-methoxy-benzylidene)-amino]-pentanoic acid], in data set [1], the “Relative Deposition (fold increase over unconjugated DFMO)” value is listed as 1.2 fold and the “% Skin Deposition” value is 0.96 ± 0.6%. Further, the “Skin penetration, %” value in data set [2] (hamster, 24 h, 1 % formulation) was 3.34 ± 1.97 % of applied dose.
